We go through 10 compounds from ChEMBL document CHEMBL1201862, “PubChem BioAssay data set” (2004).

Among the test systems are A549; CCRF-CEM; DU-145; HL-60; HT-29; K562; KM12; LOX IMVI; Malme-3M; NCI-H23; NCI-H460; NCI/ADR-RES; OVCAR-3; OVCAR-5; PC-3; RXF 393; SF-295; SK-MEL-28; SK-OV-3; SNB-75.
Common to all, as to experiment: inhibition of tumour cell growth, NCI panel, 48 h

The structures appear in SMILES notation.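 A five-concentration, 48-hour dose response in 96-well plates underlies each endpoint, interpolated linearly between surrounding concentrations. GI50 is the concentration that inhibits growth by half.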 Calls of active or inactive are those of the source. No stated cut-off is given here; in the data, active = GI50 up to about 1.1 µM and inactive = higher. Square brackets hold non-standard residues; d marks the D form. Peptide text beside a SMILES is read from it. * marks the point of attachment. NMeV = CN[C@H](C(=O)O)C(C)C; X28 = COc1ccc(CN*)c(OC)c1; Octanoyl = CCCCCCCC(=O)*; dNMeA = CN[C@H](C)C(=O)O Bounds are passed on as bounds.

Turning to `C=C(CN(C)C)C(=O)c1ccc(C)cc1C`, the GI50 in the assay on A549 is 32.2 µM (inactive); in the assay on CCRF-CEM it was 0.574 µM (active); in the assay on DU-145, 17.6 µM (inactive); in the assay on HL-60, 0.46 µM (active); with HT-29, 7.66 µM (inactive); in the assay on K562, 1.15 µM (inactive). The GI50 in the assay with KM12 is 15.9 µM (inactive); in the assay on LOX IMVI it was 5.12 µM (inactive); in the assay on Malme-3M it was 5.7 µM (inactive); in the assay with NCI-H23, 10.6 µM (inactive); with NCI-H460, 18.8 µM (inactive); in the assay on NCI/ADR-RES, 7 µM (inactive). The GI50 was 7.87 µM (inactive) in the assay with OVCAR-3; 14.1 µM (inactive) with OVCAR-5; 14.1 µM (inactive) in the assay on PC-3; 4.51 µM (inactive) with RXF 393; 16.3 µM (inactive) in the assay with SF-295; 6.1 µM (inactive) in the assay on SK-MEL-28. Besides, the GI50 with SK-OV-3 was 18.5 µM (inactive); in the assay on SNB-75, 16.5 µM (inactive).

As to `O=C1CN(C(=O)C2CCCN2C(=O)C2CCCN2)C(=O)CN1` (stereo not given), the GI50 with A549, in the assay on CCRF-CEM, in the assay on DU-145, with HL-60, in the assay on HT-29 and with K562 was > 100 µM (inactive) throughout. The GI50 in the assay on KM12, in the assay with LOX IMVI, in the assay on Malme-3M, in the assay with NCI-H23, in the assay on NCI-H460 and with NCI/ADR-RES was > 100 µM (inactive) in each case. In addition, the GI50 in the assay on OVCAR-3, with OVCAR-5, in the assay with PC-3, with RXF 393, in the assay on SF-295 and in the assay on SK-MEL-28 was > 100 µM (inactive) in each case. The GI50 with SK-OV-3 and in the assay on SNB-75 was > 100 µM (inactive) each time.

As to `Cn1c2ccccc2c(=NNc2ccc(C(=O)O)cc2)c2ccccc21`, the GI50 is 14.4 µM (inactive) in the assay with A549; 15.2 µM (inactive) in the assay on CCRF-CEM; 19.5 µM (inactive) with DU-145; 14.6 µM (inactive) in the assay on HL-60; 13.1 µM (inactive) with HT-29; 6.79 µM (inactive) in the assay on K562. The GI50 with KM12 is 15.7 µM (inactive); in the assay on LOX IMVI, 10.6 µM (inactive); with Malme-3M, 21.1 µM (inactive); in the assay with NCI-H23, 21.1 µM (inactive); with NCI-H460, 16.1 µM (inactive); in the assay with NCI/ADR-RES it was 23.9 µM (inactive). Besides, the GI50 is 16.5 µM (inactive) in the assay on OVCAR-3; 17.8 µM (inactive) in the assay with OVCAR-5; 14.1 µM (inactive) in the assay on PC-3; 15.4 µM (inactive) with RXF 393; 20.8 µM (inactive) with SF-295; 26 µM (inactive) in the assay with SK-MEL-28. Besides, the GI50 with SK-OV-3 was 17.3 µM (inactive); with SNB-75, 19.8 µM (inactive).

Turning to `C/C(=N\NC(=S)N1CCCCCC1)c1ccccn1`, the GI50 in the assay with A549 is 0.0271 µM (active); in the assay with CCRF-CEM, 0.00383 µM (active); in the assay with DU-145, 0.986 µM (active); in the assay with HL-60, 0.0021 µM (active); with HT-29 it was < 0.001 µM (active); in the assay with K562 it was 0.00288 µM (active). Also, the GI50 in the assay on KM12 was 0.0258 µM (active); with LOX IMVI, 0.0656 µM (active); in the assay on Malme-3M, 0.0316 µM (active); in the assay with NCI-H23 it was 0.00897 µM (active); with NCI-H460, 0.0164 µM (active); in the assay on NCI/ADR-RES it was 0.01 µM (active). In addition, the GI50 in the assay with OVCAR-3 was < 0.001 µM (active); in the assay on OVCAR-5 it was 0.897 µM (active); in the assay on PC-3, 0.011 µM (active); in the assay with RXF 393, 0.553 µM (active); with SF-295, < 0.0187 µM (active); in the assay on SK-MEL-28, 1.18 µM (inactive). Moreover, the GI50 was 0.00665 µM (active) with SK-OV-3 and 0.0692 µM (active) with SNB-75.

Consider `C=C1C(=O)O[C@H]2[C@H]1[C@H](OC(=O)/C(C)=C\C)C[C@]1(CO1)[C@@H]1[C@H](OC(C)=O)C=C(C)[C@]21O` [EUPAROTIN ACETATE], for which the GI50 is 69.2 µM (inactive) in the assay with A549; 2.36 µM (inactive) with CCRF-CEM; 15.4 µM (inactive) in the assay on DU-145; 2.66 µM (inactive) in the assay with HL-60; 12.4 µM (inactive) in the assay on HT-29; 0.383 µM (active) in the assay on K562. Also, the GI50 with KM12 is 19 µM (inactive); with LOX IMVI, 12.7 µM (inactive); with Malme-3M, 13.5 µM (inactive); with NCI-H23, 23.2 µM (inactive); in the assay with NCI-H460 it was 28 µM (inactive); in the assay with NCI/ADR-RES, 21.5 µM (inactive). The GI50 is 14.7 µM (inactive) with OVCAR-3; 25.4 µM (inactive) with OVCAR-5; 23.1 µM (inactive) in the assay with PC-3; 10.8 µM (inactive) in the assay on RXF 393; > 83.9 µM (inactive) in the assay on SF-295; 14.7 µM (inactive) in the assay on SK-MEL-28. The GI50 was > 59.6 µM (inactive) in the assay with SK-OV-3 and 67.5 µM (inactive) in the assay on SNB-75.

As for `CCOC(=O)C(Cl)(Cl)/S(=N\S(=O)(=O)c1ccccc1)NC(=O)c1ccccc1` (stereo not given), the GI50 was > 100 µM (inactive) in the assay on A549; > 100 µM (inactive) with CCRF-CEM; > 100 µM (inactive) with DU-145; 0.65 µM (active) in the assay on HL-60; > 100 µM (inactive) in the assay with HT-29; > 100 µM (inactive) with K562. For the same compound, the GI50 in the assay with KM12, in the assay with LOX IMVI, with Malme-3M, in the assay on NCI-H23, in the assay with NCI-H460 and with NCI/ADR-RES was > 100 µM (inactive) each time. The GI50 with OVCAR-3, in the assay with OVCAR-5, with PC-3, in the assay on RXF 393, in the assay on SF-295 and in the assay with SK-MEL-28 was > 100 µM (inactive) each time. Besides, the GI50 in the assay on SK-OV-3 and in the assay with SNB-75 was > 100 µM (inactive) each time.

In the case of `O=C(NC1(c2cc3ccccc3s2)CCCCC1)C1CCC1`, the GI50 in the assay with A549, with CCRF-CEM, in the assay on DU-145, with HL-60, in the assay on HT-29 and with K562 was > 100 µM (inactive) throughout. The GI50 with KM12, in the assay on LOX IMVI, in the assay with Malme-3M, in the assay on NCI-H23, in the assay with NCI-H460 and in the assay with NCI/ADR-RES was > 100 µM (inactive) in each case. Further, the GI50 was > 100 µM (inactive) with OVCAR-3; > 100 µM (inactive) in the assay with OVCAR-5; > 100 µM (inactive) with PC-3; > 100 µM (inactive) in the assay on RXF 393; > 100 µM (inactive) in the assay on SF-295; 66.8 µM (inactive) in the assay on SK-MEL-28. For the same compound, the GI50 with SK-OV-3 is > 100 µM (inactive); with SNB-75, 46.7 µM (inactive).

Regarding `CCCCCCCC(=O)N[C@H](C(=O)N[C@H](C(=O)N(C)[C@H](C(=O)N1CCC[C@H]1C(=O)N(C)[C@H](C)C(=O)NCc1ccc(OC)cc1OC)C(C)C)C(C)C)C(C)C` (Octanoyl-VV[NMeV]P[dNMeA]-X28), the GI50 was 6.55 µM (inactive) in the assay on A549; 11.5 µM (inactive) with CCRF-CEM; 25.3 µM (inactive) in the assay with DU-145; 3.68 µM (inactive) with HL-60; 4.23 µM (inactive) in the assay with HT-29; 5.62 µM (inactive) in the assay with K562. Also, the GI50 in the assay with KM12 was 4.62 µM (inactive); in the assay with LOX IMVI, 12.2 µM (inactive); in the assay with Malme-3M it was 8.17 µM (inactive); in the assay with NCI-H23, 13.6 µM (inactive); with NCI-H460, 8.34 µM (inactive); in the assay on NCI/ADR-RES, 42.1 µM (inactive). For the same compound, the GI50 was 4.2 µM (inactive) in the assay with OVCAR-3; 25.5 µM (inactive) in the assay with OVCAR-5; 7.01 µM (inactive) in the assay on PC-3; 8.57 µM (inactive) in the assay on RXF 393; 7.96 µM (inactive) in the assay with SF-295; 8.77 µM (inactive) in the assay with SK-MEL-28. Also, the GI50 in the assay with SK-OV-3 is 28.9 µM (inactive); in the assay with SNB-75, 21.3 µM (inactive).

On to `O=C(CCCN1CCC(Nc2ccccc2)(c2nnnn2C2CCCCC2)CC1)c1ccc(F)cc1`, for which the GI50 in the assay on A549 was 3.49 µM (inactive); with CCRF-CEM, 16.4 µM (inactive); in the assay with DU-145, 3.81 µM (inactive); in the assay with HL-60, 4.73 µM (inactive); in the assay with HT-29, 3.03 µM (inactive); with K562, 13 µM (inactive). In addition, the GI50 with KM12 is 8.47 µM (inactive); in the assay with LOX IMVI, 3.81 µM (inactive); in the assay with Malme-3M, 3.24 µM (inactive); with NCI-H23 it was 13.7 µM (inactive); with NCI-H460 it was 8.65 µM (inactive); in the assay on NCI/ADR-RES, 21 µM (inactive). Moreover, the GI50 with OVCAR-3 was 9.27 µM (inactive); in the assay with OVCAR-5, 7.23 µM (inactive); in the assay with PC-3, 3.94 µM (inactive); with RXF 393, 9.64 µM (inactive); in the assay on SF-295, 14.5 µM (inactive); in the assay on SK-MEL-28, 3.79 µM (inactive). The GI50 in the assay on SK-OV-3 is 13.3 µM (inactive); with SNB-75 it was 10.2 µM (inactive).

For the compound `C=CCN(c1cc(OC)c2[nH]c(C(=O)OCC)c(C)c2c1[N+](=O)[O-])S(C)(=O)=O`, the GI50 is 22 µM (inactive) with A549; 26.3 µM (inactive) with CCRF-CEM; 24.7 µM (inactive) with DU-145; 15.8 µM (inactive) in the assay with HL-60; 18.2 µM (inactive) with HT-29; 15.1 µM (inactive) in the assay with K562. Also, the GI50 was 23.5 µM (inactive) in the assay with KM12; 19.3 µM (inactive) in the assay on LOX IMVI; 15.7 µM (inactive) in the assay on Malme-3M; 28.4 µM (inactive) in the assay on NCI-H23; 30.3 µM (inactive) in the assay on NCI-H460; 23.6 µM (inactive) in the assay on NCI/ADR-RES. In addition, the GI50 is 23.8 µM (inactive) with OVCAR-3; 29.3 µM (inactive) in the assay on OVCAR-5; 18 µM (inactive) with PC-3; 7.23 µM (inactive) in the assay on RXF 393; 28.5 µM (inactive) in the assay with SF-295; 43.2 µM (inactive) in the assay with SK-MEL-28. Further, the GI50 is 36.3 µM (inactive) in the assay with SK-OV-3 and 15.2 µM (inactive) in the assay with SNB-75.
